In patent publication US20210323977A1, “PYRROLIDINYL AMIDE COMPOUNDS FOR THE TREATMENT OF AUTOIMMUNE DISEASE” (Hoffmann-La Roche Inc., priority 2018, published 2021) one finds IC50 data, which are given here for 14 molecules.

The target in the experiment is T1, human TLR9 (Homo sapiens, UniProt Q9NR96).
T1 sequence (Q9NR96 26-1032): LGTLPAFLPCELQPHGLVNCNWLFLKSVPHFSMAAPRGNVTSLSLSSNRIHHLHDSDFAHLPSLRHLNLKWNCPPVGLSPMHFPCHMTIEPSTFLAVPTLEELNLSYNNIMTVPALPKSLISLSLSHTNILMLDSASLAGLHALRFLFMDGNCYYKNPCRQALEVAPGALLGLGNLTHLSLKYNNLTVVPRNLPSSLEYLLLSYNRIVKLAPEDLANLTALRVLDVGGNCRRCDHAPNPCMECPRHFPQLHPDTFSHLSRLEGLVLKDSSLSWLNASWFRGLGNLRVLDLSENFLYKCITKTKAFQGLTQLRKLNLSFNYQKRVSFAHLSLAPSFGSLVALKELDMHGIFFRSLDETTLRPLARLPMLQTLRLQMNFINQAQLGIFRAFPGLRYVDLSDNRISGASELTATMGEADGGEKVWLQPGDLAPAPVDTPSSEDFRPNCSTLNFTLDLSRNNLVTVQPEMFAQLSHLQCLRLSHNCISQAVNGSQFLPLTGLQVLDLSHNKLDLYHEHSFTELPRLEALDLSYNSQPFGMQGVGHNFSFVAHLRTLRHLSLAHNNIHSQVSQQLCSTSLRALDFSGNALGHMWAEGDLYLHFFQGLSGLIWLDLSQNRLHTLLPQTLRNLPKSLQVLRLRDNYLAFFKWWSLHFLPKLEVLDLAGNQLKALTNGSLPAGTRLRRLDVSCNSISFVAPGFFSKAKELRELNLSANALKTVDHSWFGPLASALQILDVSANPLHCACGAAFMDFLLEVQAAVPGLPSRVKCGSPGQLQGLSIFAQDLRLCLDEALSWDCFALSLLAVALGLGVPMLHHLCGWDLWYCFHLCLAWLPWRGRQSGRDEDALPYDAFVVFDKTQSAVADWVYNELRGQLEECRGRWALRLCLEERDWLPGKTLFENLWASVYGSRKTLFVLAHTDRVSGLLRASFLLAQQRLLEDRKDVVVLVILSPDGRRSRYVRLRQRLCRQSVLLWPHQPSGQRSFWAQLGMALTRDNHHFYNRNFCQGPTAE
The experiment is described as follows: HEK293-Blue-hTLR-9 cells assay. It is filed as cell-based. Particulars: HEK293-Blue-hTLR9 cells, SEAP reporter, ODN2006 stimulation, 20 hrs. The text has this: HEK293-Blue-hTLR-9 Cells Assay:
A stable HEK293-Blue-hTLR-9 cell line was purchased from InvivoGen (Cat. #: hkb-htlh9, San Diego, Calif., USA). These cells were originally designed for studying the stimulation of human TLR9 by monitoring the activation of NF-κB. A SEAP (secreted embryonic alkaline phosphatase) reporter gene was placed under the control of the IFN-β minimal promoter fused to five NF-κB and AP-1-binding sites. The SEAP was induced by activating NF-κB and AP-1 via stimulating HEK-Blue hTLR9 cells with TLR9 ligands. Therefore the reporter expression was declined by TLR9 antagonist under the stimulation of a ligand, such as ODN2006 (Cat. #: tlrl-2006-1, Invivogen, San Diego, Calif., USA), for incubation of 20 hrs. The cell culture supernatant SEAP reporter activity was determined using QUANTI-Blue™ kit (Cat. #: rep-qb1, Invivogen, San Diego, Calif., USA) at a wavelength of 640 nm, a detection medium that turns purple or blue in the presence of alkaline phosphatase.
HEK293-Blue-hTLR9 cells were incubated at a density of 250,000-450,000 cells/mL in a volume of 170 μL in a 96-well plate in Dulbecco's Modified Eagle's medium (DMEM) containing 4.5 g/L glucose, 50 U/mL penicillin, […], […], 2 mM L-glutamine, 10% (v/v) heat-inactivated fetal bovine serum with addition of 20 sL test compound in a serial dilution in the presence of final DMSO at 1% and 10 sL of 20 uM ODN2006 in above DMEM, perform incubation under 37° C. in a CO2 incubator for 20 hrs. Then 20 sL of the supernatant from each well was incubated with 180 μL Quanti-blue substrate solution at 37° C. for 2 hrs and the absorbance was read at 620-655 nm using a spectrophotometer. The signalling pathway that TLR9 activation leads to downstream NF-x3B activation has been widely accepted, and therefore similar reporter assay was modified for evaluating TLR9 antagonist.
Usually IC50 stands for the midpoint of a concentration-inhibition curve. Molecule `N#Cc1ccc(N2CC(C(=O)NC[C@H]3CNCCO3)C3(CC3)C2)c2nccnc12` (single isomer, unassigned) [Example 70A] gave an IC50 of 6.9 µM.

For the molecule `N#Cc1ccc(N2CC(C(=O)NC[C@@H]3CNCCO3)C3(CC3)C2)c2nccnc12` (single isomer, unassigned) [Example 71B], the IC50 stood at 1.9 µM. Under `CN1CCC(NC(=O)C2CN(c3ccc(C(F)(F)F)c4nccnc34)CC23CC3)CC1` (centres unmarked) [Example 11, N-(1-methyl-4-piperidyl)-5-[8-(trifluoromethyl)quinoxalin-5-yl]-5-azaspiro[2.4]heptane-7-carboxamide] stands 1 µM; under `CN1CC(NC(=O)C2CN(c3ccc(C(F)(F)F)c4nccnc34)CC23CC3)C2(CC2)C1` (centres unmarked) [Example 20, N-(5-methyl-5-azaspiro[2.4]heptan-7-yl)-5-[8-(trifluoromethyl)quinoxalin-5-yl]-5-azaspiro[2.4]heptane-7-carboxamide], 13.1 µM; under `C[C@@H]1CN(c2ccc(C#N)c3ncccc23)C[C@H]1C(=O)N1CCC2(CCNCC2)CC1` (relative stereo) [Example 32, Trans-5-[3-(3,9-diazaspiro[5.5]undecane-3-carbonyl)-4-methyl-pyrrolidin-1-yl]quinoline-8-carbonitrile], 2.4 µM. Under `C[C@H]1CN(c2ccc(C(F)(F)F)c3nccnc23)C[C@@H]1C(=O)NC1CCN(C)CC1` [Example 5, (3R,4R)-4-methyl-N-(1-methyl-4-piperidyl)-1-[8-(trifluoromethyl)quinoxalin-5-yl]pyrrolidine-3-carboxamide] stands 10.4 µM. With `C[C@@H]1CN(c2ccc(C#N)c3ncccc23)C[C@H]1C(=O)N[C@H]1CNC[C@H]1F` [Example 56, Trans-1-(8-cyano-5-quinolyl)-N-[(3S,4R)-4-fluoropyrrolidin-3-yl]-4-methyl-pyrrolidine-3-carboxamide] the figure was 18.6 µM; with `C[C@H]1CN(c2ccc(C#N)c3nccnc23)C[C@@H]1C(=O)NC1CCN(C2CCNCC2)CC1` [Example 60, (3R,4R)-1-(8-cyanoquinoxalin-5-yl)-4-methyl-N-[1-(4-piperidyl)-4-piperidyl]pyrrolidine-3-carboxamide], 3.2 µM; with `C[C@H]1CN(c2ccc([N+](=O)[O-])c3ncccc23)C[C@@H]1C(=O)NC1CCN(C)CC1` [Example 27, (3R,4R)-4-Methyl-N-(1-methyl-4-piperidyl)-1-(8-nitro-5-quinolyl)pyrrolidine-3-carboxamide], 4.5 µM.

Molecule `NC1CC(NC(=O)C2CN(c3ccc(C(F)(F)F)c4nccnc34)CC23CC3)C1` (centres unmarked) [Example 38, N-(3-Aminocyclobutyl)-5-[8-(trifluoromethyl)quinoxalin-5-yl]-5-azaspiro[2.4]heptane-7-carboxamide] gave an IC50 of 12.3 µM. With `O=C(NC1C2CCCC1CNC2)C1CN(c2ccc(C(F)(F)F)c3nccnc23)CC12CC2` (centres unmarked) [Example 8, N-(3-azabicyclo[3.3.1]nonan-9-yl)-5-[8-(trifluoromethyl)quinoxalin-5-yl]-5-azaspiro[2.4]heptane-7-carboxamide] the figure was 8.3 µM; with `N#Cc1ccc(N2CC(C(=O)NC3CCCNCC3)C(C(F)(F)F)C2)c2cccnc12` (single isomer, unassigned) [Example 30A, N-(azepan-4-yl)-1-(8-cyano-5-quinolyl)-4-(trifluoromethyl)pyrrolidine-3-carboxamide], 17.5 µM. Under `NC1CC2(C1)CC(NC(=O)C1CN(c3ccc(C(F)(F)F)c4nccnc34)CC13CC3)C2` (centres unmarked) [Example 22, N-(6-aminospiro[3.3]heptan-2-yl)-5-[8-(trifluoromethyl)quinoxalin-5-yl]-5-azaspiro[2.4]heptane-7-carboxamide] stands 8.2 µM. With `Cc1ccc(N2C[C@H](C(=O)NC3CCN(C)CC3)[C@@H](C)C2)c2nccnc12` [Example 33, (3R,4R)-4-Methyl-N-(1-methyl-4-piperidyl)-1-(8-methylquinoxalin-5-yl)pyrrolidine-3-carboxamide] the figure was 30.2 µM.
